Measured values from PMC4079544, “A Linear Relationship between Crystal Size and Fragment Binding Time Observed Crystallographically: Implications for Fragment Library Screening Using Acoustic Droplet Ejection” (PLoS ONE, 2014).

Target: T1, Lysozyme (Gallus gallus, UniProt P00698)
T1 construct: gene LYZ
Test: X-ray crystallography of soaked crystals ([…] data sets), ligand occupancy vs soak time; Kd^cryst from fitted Omax
Type: binding

T1 sequence (P00698 19-147): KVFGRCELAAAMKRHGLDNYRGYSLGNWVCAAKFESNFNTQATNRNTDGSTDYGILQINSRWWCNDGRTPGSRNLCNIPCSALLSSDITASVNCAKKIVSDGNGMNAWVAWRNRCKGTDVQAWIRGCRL

Kd: 5.4 mM
SMILES: CC(=O)N[C@H]1C(O)O[C@H](CO)[C@@H](O)[C@@H]1O (stereo partly shown) [NAG, N-acetyl glucosamine]
